In patent US20180177899A1, “HYDROPHILIC PARTICLES, METHOD FOR PRODUCING THE SAME, AND CONTRAST AGENT UTILIZING SAME” (Korea Basic Science Institute, priority 2015, published 2018):

Assays:
[1] = Optical stability under continuous 785 nm laser irradiation; format: physicochemical; conditions: 30 minutes
Method: A slide glass on which the nanoparticle of Example 4 was spin coated thereon was prepared. A region of the slide glass was selected, and was continuously irradiated by 785 nm laser for 30 minutes.
FIGS. 14A to 14D are a single particle fluorescence images showing the optical stability of an up-conversion nanoparticle coated with indocyanine green.

[2] = Surface charge (zeta potential) by particle size surface charge analyzer; format: physicochemical; conditions: aqueous phase
Method: The surface charge of the nanoparticle of Example 2 was measured using a particle size surface charge analyzer (Zetasizer Nano-ZS, […]). In addition, the surface charge of a pure indocyanine green solution was measured using the particle size surface charge analyzer.

CC1(C)C(/C=C/C=C/C=C/C=C2\N(CCCCS(=O)(=O)O)c3ccc4ccccc4c3C2(C)C)=[N+](CCCCS(=O)(=O)[O-])c2ccc3ccccc3c21 [indocyanine green]
fluorescence signal of indocyanine green after laser irradiation (optical stability) [1]: relatively much reduced or disappeared after 30 minutes
surface charge [2]: −25.1 mV
